Experimental data published in patent publication US12551480B2, “Treatment using EYP001” (ENYO PHARMA, priority 2019, dated 2026).

Legend:
[1] = clinical trials of obeticholic acid (PBC, NASH); cited from earlier work
[2] = human, in vivo
[3] = test system: HBV (plasma HBsAg); experiment: Plasma HBsAg change from baseline in patients with chronic Hepatitis B infection, 4 weeks; format: in vivo, human; settings: 400 mg QD vs 200 mg BID, chronic Hepatitis B patients (FIG. 3)
Experimental: FIG. 3: Plasma HBsAg (Log 10 IU/mL) change from baseline in patients with chronic Hepatitis B infection. Patients received during 4 weeks either Placebo (n=8), EYP001 200 mg BID (n=8) or EYP001 400 mg QD (n=8). Values expressed as mean; error bar is SD. * p<0.05 vs baseline.
Patients chronically infected with HBV underwent a 4-week treatment as either daily oral FXR agonist EYP001 monotherapy or placebo or entecavir (ETV) in Part A of the study (n=48) or in combination with IFN (Part B, n=23, weekly sub-cutaneous injections of pegylated IFNα2a, PEG-IFN). Overall 15 (30%) patients developed pruritus related to EYP001, a well-known TEAE with FXR agonist, the mechanism of which however is poorly understood.

[4] = Study EYP001-202 Phase 2a in NASH patients: liver fat content (LFC) change from baseline to Week 12 by MRI-PDFF; format: in vivo, human
Experimental: FIG. 2: Absolute Liver Fat Content Change (%) from baseline assessed by MRI-PDFF in NASH patients treated during 12 weeks with EYP001 100 mg BID (n=4) or EYP001 200 mg QD (n=3) or Placebo (n=5). Values expressed as means; error bar is SE. #p=0.07 vs baseline. The ------- line corresponds to a 5% clinical meaningful reduction. Analysis of covariance (ANCOVA) model with change from baseline as the dependent variable and baseline Liver Fat Content as a covariate and treatment (pooled EYP001 and Placebo BID) and stratification factors—statin use and T2DM status at screening as factors.
(§1) EYP001a is an investigational agonist of the FXR, a key regulator of bile, lipid, and glucose metabolism. […] Study EYP001-202 is a Phase 2a, 2-part study conducted to determine the efficacy and safety profiles of different doses and dosing regimens of EYP001 (100 mg twice daily [BID] and 200 mg once daily [QD]) versus placebo on LFC (liver fat content) from baseline to Week 12 in patients with NASH. An interim analysis on 24 patients enrolled in Part A Safety Run-in Cohort focused on safety, tolerance and key efficacy results.
The primary efficacy endpoint of LFC reduction was met.

[5] = NASH rodent model; format: in vivo
[6] = Study EYP001-202 Phase 2a in NASH patients: pruritus intensity on Visual Analog Scale, safety and tolerance; format: in vivo, human
Experimental: Values are AUC least square means (error bars=SE). AUC=area under the concentration-time curve; BID=twice daily; QD=once daily. * p<0.05 versus Placebo.
as §1
VAS (Visual Analog Score) results were the followings: 100 mg BID group (mean change from baseline ranged from 3.34 on Day 7 to 6.84 on Day 21), and the 200 mg QD group (mean change from baseline ranged from 3.03 on Day 28 to 3.47 on Day 56).
The efficacy was shown with a significant, clinically relevant LFC reduction from baseline. However, tolerance was affected due to pruritus events causing premature terminations. The BID regimen less well tolerated compared to QD regimen. In addition, a higher efficacy is associated to the QD regimen in comparison to the BID.

Row | Structure (SMILES) | pruritus rates [1] | frequency of pruritus with QD dosing compared to BID regimens [2] | any of above Pruritus related MEDRA (% of patients) ([2]; 4 weeks) | n = any of above Pruritus related MEDRA (number of patients) ([2]; 4 weeks) | none of above (% of patients without pruritus) ([2]; 4 weeks) | none of above (number of patients without pruritus) ([2]; 4 weeks) | patients who developed pruritus related to EYP001 (%) ([2]; 4 weeks) | patients who developed pruritus related to EYP001 (number) ([2]; 4 weeks) | plasma HBsAg change from baseline, efficacy of regimens compared [3] | LFC reduction, regimens compared ([4]; 200 mg QD group compared to 100 mg BID group, 12 weeks (FIG. 2)) | LFC reduction, difference from placebo ([4]; EYP001 groups pooled (100 mg BID and 200 mg QD), baseline to Week 12, p=0.04, absolute LFC change (%) by MRI-PDFF) | effect on liver steatosis, inflammation, apoptosis and fibrosis [5] | tolerance in VAS analysis (AUC over 12 weeks) ([6]; NASH patients, 200 mg QD vs 100 mg BID (FIG. 1)) | serious AEs ([6]; male and female F2-F3 NASH patients, 100 mg BID and 200 mg QD)
1 | CC[C@H]1[C@@H](O)[C@@H]2[C@H](CC[C@]3(C)[C@@H]([C@H](C)CCC(=O)O)CC[C@@H]23)[C@@]2(C)CC[C@@H](O)C[C@@H]12 [obeticholic acid] | up to 51% | – | – | – | – | – | – | – | – | – | – | – | – | –
2 | O=C(O)c1cc2c(Cl)c(N3CCN(S(=O)(=O)c4c(Cl)cccc4Cl)CC3)ccc2o1 [EYP001] | – | up to four times less frequent pruritus | 27% | 9 | 73% | 24 | 30% | 15 | better efficacy | more pronounced effect | 8.62 | reduced liver steatosis, inflammation, apoptosis, and fibrosis | better tolerance | no serious AEs
